# Values joined by “and” are separate entries in the source; they are usually repeats but may differ in a detail not shown here. Equal values may be shown once.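 Five concentrations, 48 hours, 96-well plates. GI50 = concentration required for 50% inhibition of growth.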 Active and inactive are the calls of the source. Rule as the data show it: active = GI50 up to about 1.1 µM and inactive = higher. Where a SMILES comes first, the peptide text is derived from it. [ ]: non-standard residue; d: D form. The star is where a group is joined. Iva = CC[C](C)(N)C(=O)O; Boc = CC(C)(C)OC(=O)*; X54 = C1CCC(=NO*)C1
# How the values were obtained:
# Test in all cases: growth of human tumour cells (NCI), 48 h
# CCRF-CEM = test system: CCRF-CEM
# EKVX = test system: EKVX
# HCC 2998 = test system: HCC 2998
# HCT-116 = test system: HCT-116
# HCT-15 = test system: HCT-15
# HOP-62 = test system: HOP-62
# HT-29 = test system: HT-29
# K562 = test system: K562
# MOLT-4 = test system: MOLT-4
# Malme-3M = test system: Malme-3M
# NCI-H522 = test system: NCI-H522
# OVCAR-4 = test system: OVCAR-4
# OVCAR-5 = test system: OVCAR-5
# SK-MEL-28 = test system: SK-MEL-28
# SK-MEL-5 = test system: SK-MEL-5
# SK-OV-3 = test system: SK-OV-3
# SNB-19 = test system: SNB-19
# SW-620 = test system: SW-620
# UO-31 = test system: UO-31
# SF-539 = test system: SF-539
SMILES,GI50 (CCRF-CEM),GI50 (EKVX),GI50 (HCC 2998),GI50 (HCT-116),GI50 (HCT-15) [µM],GI50 (HOP-62),GI50 (HT-29),GI50 (K562),GI50 (MOLT-4),GI50 (Malme-3M),GI50 (NCI-H522),GI50 (OVCAR-4),GI50 (OVCAR-5),GI50 (SK-MEL-28),GI50 (SK-MEL-5),GI50 (SK-OV-3),GI50 (SNB-19),GI50 (SW-620),GI50 (UO-31),GI50 (SF-539)
COc1ccc(CC[N+]2(C)COc3cc4oc(=O)cc(C)c4cc3C2)cc1OC (stereo not given),> 100 µM (inactive),> 100 µM (inactive),> 100 µM (inactive),> 100 µM (inactive),> 100,> 100 µM (inactive),> 100 µM (inactive),2.45 µM (inactive),1.61 µM (inactive),> 100 µM (inactive),> 100 µM (inactive),> 100 µM (inactive),> 100 µM (inactive),> 100 µM (inactive),> 100 µM (inactive),> 100 µM (inactive),> 100 µM (inactive),> 100 µM (inactive),> 100 µM (inactive),
Cc1occc1C(=S)Nc1ccc(Cl)c(C(=O)OCC(C)C)c1,26.5 µM (inactive),15.6 µM (inactive),18.9 µM (inactive),14.4 µM (inactive),16.9,,13.2 µM (inactive),12.1 µM (inactive),11.5 µM (inactive),19.3 µM (inactive),14.1 µM (inactive),13.3 µM (inactive),31.8 µM (inactive),16.3 µM (inactive),15.4 µM (inactive),20.9 µM (inactive),17.1 µM (inactive),19.2 µM (inactive),17.7 µM (inactive),22.3 µM (inactive)
CSc1nc2c(c(O)c(C)c(=O)n2C2OCC(OC(C)=O)C(OC(C)=O)C2OC(C)=O)c(=O)n1C (stereo not given),> 100 µM (inactive),,,> 100 µM (inactive),> 100,> 100 µM (inactive),> 100 µM (inactive),> 100 µM (inactive),> 100 µM (inactive),> 100 µM (inactive),> 100 µM (inactive),> 100 µM (inactive),> 100 µM (inactive),> 100 µM (inactive),> 100 µM (inactive),> 100 µM (inactive),> 100 µM (inactive),> 100 µM (inactive),> 100 µM (inactive),> 100 µM (inactive)
O=C1CCC[C@]2(CCC[C@@H](O)C2)N1,> 100 µM (inactive),> 100 µM (inactive),> 100 µM (inactive),> 100 µM (inactive),> 100,> 100 µM (inactive),> 100 µM (inactive),> 100 µM (inactive),> 10 µM (inactive),> 100 µM (inactive),> 100 µM (inactive),> 100 µM (inactive),> 100 µM (inactive),,> 100 µM (inactive),> 100 µM (inactive),> 100 µM (inactive),,,> 100 µM (inactive)
CC(Oc1ccc(Oc2cnc3ccc(Cl)cc3n2)cc1)C(=O)O (stereo not given),> 74.1 µM (inactive),> 100 µM (inactive),,88.7 µM (inactive),,> 99.3 µM (inactive),,,15.1 µM (inactive),79.3 µM (inactive),32.7 µM (inactive),> 100 µM (inactive),> 100 µM (inactive),,> 62.8 µM (inactive) and 72.8 µM (inactive),,> 100 µM (inactive),> 99.8 µM (inactive),> 95.9 µM (inactive),> 100 µM (inactive)
CCC(C)(NC(=O)C(C)NC(=O)OC(C)(C)C)C(=O)NC(C)C(=O)NC(C)(CC)C(=O)ON=C1CCCC1 (stereo not given) (Boc-A[Iva]A[Iva]-X54; configuration not given here),> 100 µM (inactive),,> 100 µM (inactive),> 100 µM (inactive),> 100,> 100 µM (inactive),,31.1 µM (inactive),29.9 µM (inactive),> 100 µM (inactive),> 100 µM (inactive),,> 100 µM (inactive),> 100 µM (inactive),> 100 µM (inactive),> 100 µM (inactive),> 100 µM (inactive),,> 100 µM (inactive),
C/C(=N/NC(=O)c1ccncc1)C(F)(F)F,,,> 100 µM (inactive),> 100 µM (inactive),> 100,> 100 µM (inactive),> 100 µM (inactive),> 100 µM (inactive),> 100 µM (inactive),> 100 µM (inactive),> 100 µM (inactive),,> 100 µM (inactive),> 100 µM (inactive),> 100 µM (inactive),> 100 µM (inactive),> 100 µM (inactive),,> 100 µM (inactive),
CC(=O)c1ccc(Oc2ccc(/C(C)=N\N=C(N)N)cc2)cc1,1.91 µM (inactive),4.51 µM (inactive),8.41 µM (inactive),3.24 µM (inactive),2.17,2.26 µM (inactive),1.67 µM (inactive),,2.25 µM (inactive),1.97 µM (inactive),1.8 µM (inactive),10.6 µM (inactive),4.68 µM (inactive),4.68 µM (inactive),2.08 µM (inactive),2.83 µM (inactive),10.7 µM (inactive),,,1.72 µM (inactive)
Cc1nn(-c2ccccc2)c(S)c1C(=O)c1ccccc1,20.5 µM (inactive),18.6 µM (inactive),29.8 µM (inactive),,34.6,,10 µM (inactive),39.8 µM (inactive),24.4 µM (inactive),> 100 µM (inactive),36.6 µM (inactive),40.7 µM (inactive),62.2 µM (inactive),33.5 µM (inactive),28.8 µM (inactive),> 100 µM (inactive),41 µM (inactive),32.6 µM (inactive),36 µM (inactive),40.7 µM (inactive)
COc1ncnc2c(Cl)c(C(O)c3ccccc3)c(Cl)cc12 (stereo not given),,30.5 µM (inactive),,17.9 µM (inactive),24.6,15.2 µM (inactive),30.1 µM (inactive),14.9 µM (inactive),24 µM (inactive),34.6 µM (inactive),31.3 µM (inactive),29.1 µM (inactive),60.5 µM (inactive),34.6 µM (inactive),26.2 µM (inactive),19.5 µM (inactive),26.6 µM (inactive),25.6 µM (inactive),37.3 µM (inactive),20.6 µM (inactive)
O=[N+]([O-])c1ccc(-c2nc(/C=N/N3CCCCC3)cs2)o1,,> 100 µM (inactive),,34.1 µM (inactive),32.6,53 µM (inactive),25.9 µM (inactive),57.5 µM (inactive),26.5 µM (inactive),22.8 µM (inactive),45.2 µM (inactive),23.6 µM (inactive),> 100 µM (inactive),31.6 µM (inactive),18 µM (inactive),> 100 µM (inactive),> 100 µM (inactive),> 100 µM (inactive),> 100 µM (inactive),> 100 µM (inactive)
C/C=C1\CCC2c3[nH]c4ccccc4c3CCN2C1 (stereo not given),> 100 µM (inactive),> 100 µM (inactive),,56 µM (inactive),,> 100 µM (inactive),40 µM (inactive),43.6 µM (inactive),76.4 µM (inactive),0.174 µM (active),83.8 µM (inactive),32.1 µM (inactive),,> 100 µM (inactive),51.2 µM (inactive),> 100 µM (inactive),> 100 µM (inactive),> 100 µM (inactive),38.6 µM (inactive),> 100 µM (inactive)
O=C1C(Cl)N(c2ccc(Cl)cc2)C1c1c[nH]c2ccccc12 (stereo not given),13 µM (inactive),16.9 µM (inactive),,13.8 µM (inactive),,17.7 µM (inactive),17.1 µM (inactive),16.7 µM (inactive),14.7 µM (inactive),12.5 µM (inactive),17.2 µM (inactive),39.7 µM (inactive),,24.8 µM (inactive),15.5 µM (inactive),> 10 µM (inactive),18.2 µM (inactive),26 µM (inactive),11.6 µM (inactive),18.2 µM (inactive)
O=S1(=O)Cc2ccc3c4c2-c2c(ccc5ccc(c-4c25)CS(=O)(=O)C3)C1,,89.1 µM (inactive),> 100 µM (inactive),46.3 µM (inactive),22.9,> 100 µM (inactive),57 µM (inactive),26.7 µM (inactive),23.1 µM (inactive),> 100 µM (inactive),46.8 µM (inactive),> 100 µM (inactive),> 100 µM (inactive),> 100 µM (inactive),,> 100 µM (inactive),> 100 µM (inactive),71 µM (inactive),43.3 µM (inactive),51.9 µM (inactive)
COc1cc(C(O)(CC#N)c2cc3c(cc2Br)OCO3)cc(OC)c1OC (stereo not given),43.2 µM (inactive),54.1 µM (inactive),24 µM (inactive),40.6 µM (inactive),,1.63 µM (inactive),25.4 µM (inactive),48 µM (inactive),56 µM (inactive),,,> 100 µM (inactive),17.4 µM (inactive),23.4 µM (inactive),,24.4 µM (inactive),27.1 µM (inactive),40.3 µM (inactive),57.5 µM (inactive),8.05 µM (inactive)
CCCCc1ccc(N2C(=O)c3cc([N+](=O)[O-])cnc3S2(=O)=O)cc1,> 10 µM (inactive),> 100 µM (inactive),> 100 µM (inactive),> 100 µM (inactive),> 100,> 100 µM (inactive),> 100 µM (inactive),> 100 µM (inactive),> 100 µM (inactive),> 100 µM (inactive),,> 100 µM (inactive),> 100 µM (inactive),> 100 µM (inactive),> 100 µM (inactive),> 100 µM (inactive),52.1 µM (inactive),> 100 µM (inactive),> 100 µM (inactive),> 100 µM (inactive)
